Literature values, collected in patent US4568690A, “1-Methyl-5-p-methylbenzoylpyrrole-2-acetamidoacetanilides with antiinflammatory, analgesic, antipyretic and anti-platelet aggregant activity” (priority 1983, dated 1986).

Tests used:
[1] = system: carragenin-induced edema; conditions: background statement, prior ester; cited from earlier work
[2] = system: healthy animals; conditions: background statement, prior ester; cited from earlier work

## COc1ccccc1OC(=O)CNC(=O)Cc1ccc(C(=O)c2ccc(C)cc2)n1C [Compound 4, 1-methyl-5-p-methylbenzoylpyrrole-2-acetamidoacetate of o-methoxyphenol]
[1]
  antinflammatory, analgesic, antipyretic, antisecretive and cough suppressing activity versus Tolmetin (in words): greater than that of Tolmetin
  duration of action versus Tolmetin (in words): longer lasting action
[2]
  toxicity versus Tolmetin (in words): lower toxicity
